In the case of `C=Cc1c(NC(=O)c2cn(C)nc2C(F)(F)F)cccc1C(C)(C)C`, the melting point is reported as 118 to 119 °C.

From patent US7767625B2 (dated 2010)
